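Results reflect a 48-hour exposure of cells in 96-well plates to compound at five concentrations. Definition used: TGI = concentration required for complete inhibition of growth.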
What was measured:
Experiment in all cases: NCI tumour cell line growth inhibition, 48 h
T-47D breast = tested on: T-47D breast
CCRF-CEM leukemia = tested on: CCRF-CEM leukemia
PC-3 prostate = tested on: PC-3 prostate
K-562 leukemia = tested on: K-562 leukemia
SF-268 CNS = tested on: SF-268 CNS
BT-549 breast = tested on: BT-549 breast
RXF 393 renal = tested on: RXF 393 renal
786-0 renal = tested on: 786-0 renal
MDA-MB-435 = tested on: MDA-MB-435
HT29 colon = tested on: HT29 colon
HCT-116 colon = tested on: HCT-116 colon
OVCAR-5 ovarian = tested on: OVCAR-5 ovarian
UACC-62 melanoma = tested on: UACC-62 melanoma
MOLT-4 leukemia = tested on: MOLT-4 leukemia
SK-OV-3 ovarian = tested on: SK-OV-3 ovarian
LOX IMVI melanoma = tested on: LOX IMVI melanoma
SK-MEL-28 melanoma = tested on: SK-MEL-28 melanoma
NCI-H522 lung = tested on: NCI-H522 lung
MDA-N = tested on: MDA-N
UACC-257 melanoma = tested on: UACC-257 melanoma
NCI-H23 lung = tested on: NCI-H23 lung
OVCAR-3 ovarian = tested on: OVCAR-3 ovarian
HL-60(TB) leukemia = tested on: HL-60(TB) leukemia
NCI/ADR-RES ovarian = tested on: NCI/ADR-RES ovarian
SW-620 colon = tested on: SW-620 colon
KM12 colon = tested on: KM12 colon
A549 NSCLC = tested on: A549 NSCLC
OVCAR-8 ovarian = tested on: OVCAR-8 ovarian
COLO 205 colon = tested on: COLO 205 colon
HOP-62 NSCLC = tested on: HOP-62 NSCLC
SK-MEL-5 melanoma = tested on: SK-MEL-5 melanoma
TK-10 renal = tested on: TK-10 renal
U251 CNS = tested on: U251 CNS
HOP-92 NSCLC = tested on: HOP-92 NSCLC
SR leukemia = tested on: SR leukemia
MCF7 breast = tested on: MCF7 breast
NCI-H460 lung = tested on: NCI-H460 lung
HCT-15 colon = tested on: HCT-15 colon
SF-295 CNS = tested on: SF-295 CNS
M14 melanoma = tested on: M14 melanoma
SF-539 CNS = tested on: SF-539 CNS
DU-145 prostate = tested on: DU-145 prostate
SN12C renal = tested on: SN12C renal
RPMI-8226 leukemia = tested on: RPMI-8226 leukemia
UO-31 renal = tested on: UO-31 renal
MDA-MB-231 breast = tested on: MDA-MB-231 breast
IGROV1 ovarian = tested on: IGROV1 ovarian
HCC-2998 colon = tested on: HCC-2998 colon
OVCAR-4 ovarian = tested on: OVCAR-4 ovarian
SNB-19 CNS = tested on: SNB-19 CNS
SK-MEL-2 melanoma = tested on: SK-MEL-2 melanoma
ACHN renal = tested on: ACHN renal
SNB-75 CNS = tested on: SNB-75 CNS
A498 renal = tested on: A498 renal
EKVX NSCLC = tested on: EKVX NSCLC
CAKI-1 renal = tested on: CAKI-1 renal
MALME-3M melanoma = tested on: MALME-3M melanoma
NCI-H226 lung = tested on: NCI-H226 lung

Measured: TGI

COc1cccc(-c2nc(-c3cnccn3)n(COCCO)n2)c1
not listed: SK-MEL-2 melanoma | ACHN renal | SNB-75 CNS | A498 renal | EKVX NSCLC | CAKI-1 renal | MALME-3M melanoma | NCI-H226 lung
> 100 µM: all other assays above

Cn1c2ccccc2c(=O)c2[nH]c3ccccc3c21
75.9 µM: MOLT-4 leukemia
59.5 µM: SK-MEL-28 melanoma
62.4 µM: SF-268 CNS
99.8 µM: SNB-75 CNS
not listed: BT-549 breast | HL-60(TB) leukemia | SR leukemia
> 100 µM: all other assays above

Source: PubChem BioAssay (NCI)
